Source: PubChem BioAssay (NCI)
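Following 48 hours of exposure in 96-well plates, responses at five concentrations were used to interpolate endpoints linearly. At the TGI there is no net growth.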

What was measured:
Experiment in all cases: NCI anticancer screen, dose series, 48 h
[1] = test system: SK-MEL-28 melanoma
[2] = test system: LXFL 529 NSCLC
[3] = test system: ACHN renal
[4] = test system: SNB-75 CNS
[5] = test system: SF-268 CNS
[6] = test system: DMS 114 small cell lung
[7] = test system: A549 NSCLC
[8] = test system: HL-60(TB) leukemia
[9] = test system: CAKI-1 renal
[10] = test system: CCRF-CEM leukemia
[11] = test system: SNB-19 CNS
[12] = test system: TK-10 renal
[13] = test system: KM20L2 colon
[14] = test system: SK-MEL-2 melanoma
[15] = test system: RPMI-8226 leukemia
[16] = test system: SNB-78 CNS
[17] = test system: HCT-116 colon
[18] = test system: KM12 colon
[19] = test system: DLD-1 colon
[20] = test system: UACC-62 melanoma
[21] = test system: 786-0 renal
[22] = test system: UO-31 renal
[23] = test system: IGROV1 ovarian
[24] = test system: SN12C renal
[25] = test system: HOP-62 NSCLC
[26] = test system: M14 melanoma
[27] = test system: LOX IMVI melanoma
[28] = test system: OVCAR-8 ovarian
[29] = test system: DMS 273 small cell lung
[30] = test system: SF-295 CNS
[31] = test system: OVCAR-4 ovarian
[32] = test system: HOP-18 NSCLC
[33] = test system: OVCAR-3 ovarian
[34] = test system: COLO 205 colon
[35] = test system: A498 renal
[36] = test system: SW-620 colon
[37] = test system: NCI-H226 lung
[38] = test system: HCT-15 colon
[39] = test system: XF 498 CNS
[40] = test system: NCI-H460 lung
[41] = test system: EKVX NSCLC
[42] = test system: U251 CNS
[43] = test system: SK-OV-3 ovarian
[44] = test system: MOLT-4 leukemia
[45] = test system: UACC-257 melanoma
[46] = test system: MALME-3M melanoma
[47] = test system: SK-MEL-5 melanoma
[48] = test system: K-562 leukemia
[49] = test system: RXF 393 renal
[50] = test system: HCC-2998 colon
[51] = test system: M19-MEL melanoma
[52] = test system: HOP-92 NSCLC
[53] = test system: SF-539 CNS
[54] = test system: NCI-H522 lung
[55] = test system: NCI-H23 lung
[56] = test system: OVCAR-5 ovarian
[57] = test system: HT29 colon

## Cc1cccc(-c2nnc3s/c(=C\c4ccc5c(c4)OCO5)c(=O)n23)c1
[1]
  TGI: > 100 µM
[2]
  TGI: > 100 µM
[3]
  TGI: > 100 µM
[4]
  TGI: > 100 µM
[5]
  TGI: > 100 µM
[6]
  TGI: > 100 µM
[7]
  TGI: > 100 µM
[8]
  TGI: > 100 µM
[9]
  TGI: > 100 µM
[10]
  TGI: > 100 µM
[11]
  TGI: > 100 µM
[12]
  TGI: > 100 µM
[13]
  TGI: > 100 µM
[14]
  TGI: > 100 µM
[15]
  TGI: > 100 µM
[16]
  TGI: > 100 µM
[17]
  TGI: > 100 µM
[18]
  TGI: > 100 µM
[19]
  TGI: > 100 µM
[20]
  TGI: > 100 µM
[21]
  TGI: > 100 µM
[22]
  TGI: > 100 µM
[23]
  TGI: > 100 µM
[24]
  TGI: > 100 µM
[25]
  TGI: > 100 µM
[26]
  TGI: > 100 µM
[27]
  TGI: > 100 µM
[28]
  TGI: > 100 µM
[29]
  TGI: > 100 µM
[30]
  TGI: > 100 µM
[31]
  TGI: > 100 µM
[32]
  TGI: > 100 µM
[33]
  TGI: > 100 µM
[34]
  TGI: > 100 µM
[35]
  TGI: > 100 µM
[36]
  TGI: > 100 µM
[37]
  TGI: > 100 µM
[38]
  TGI: > 100 µM
[39]
  TGI: > 100 µM
[40]
  TGI: > 100 µM
[41]
  TGI: > 100 µM
[42]
  TGI: > 100 µM
[43]
  TGI: > 100 µM
[44]
  TGI: > 100 µM
[45]
  TGI: > 100 µM
[46]
  TGI: > 100 µM
[47]
  TGI: > 100 µM
[48]
  TGI: > 100 µM
[49]
  TGI: > 100 µM
[50]
  TGI: > 100 µM
[51]
  TGI: > 100 µM
[52]
  TGI: > 100 µM
[53]
  TGI: > 100 µM
[54]
  TGI: > 100 µM
[55]
  TGI: > 100 µM
[56]
  TGI: > 100 µM

## COc1ccc(/C(Cl)=C(\C=O)c2ccc(Cl)c(Cl)c2)cc1
[1]
  TGI: 31 µM
[2]
  TGI: 20.4 µM
[3]
  TGI: 20 µM
[4]
  TGI: 7.87 µM
[5]
  TGI: 24.9 µM
[6]
  TGI: 18 µM
[8]
  TGI: 23.9 µM
[9]
  TGI: 23 µM
[10]
  TGI: 30.2 µM
[11]
  TGI: 30.1 µM
[12]
  TGI: 32.5 µM
[13]
  TGI: 24 µM
[14]
  TGI: 15.5 µM
[15]
  TGI: 8.05 µM
[16]
  TGI: 49 µM
[17]
  TGI: 14.1 µM
[19]
  TGI: 25.5 µM
[20]
  TGI: 26.7 µM
[22]
  TGI: 26.8 µM
[23]
  TGI: 33.7 µM
[24]
  TGI: 29.2 µM
[25]
  TGI: 27.2 µM
[26]
  TGI: 38 µM
[27]
  TGI: 13.9 µM
[28]
  TGI: 32.3 µM
[29]
  TGI: 32.8 µM
[30]
  TGI: 22 µM
[32]
  TGI: 28.3 µM
[33]
  TGI: 31.9 µM
[34]
  TGI: 36.6 µM
[57]
  TGI: 15.5 µM
[35]
  TGI: 35.6 µM
[36]
  TGI: 19.3 µM
[37]
  TGI: 36.4 µM
[38]
  TGI: 20.4 µM
[39]
  TGI: 24.3 µM
[40]
  TGI: 19 µM
[41]
  TGI: 37.9 µM
[42]
  TGI: 18.4 µM
[43]
  TGI: 55 µM
[44]
  TGI: 7.36 µM
[46]
  TGI: 34.1 µM
[47]
  TGI: 25.8 µM
[48]
  TGI: > 100 µM
[51]
  TGI: 28.2 µM
[52]
  TGI: 24.3 µM
[53]
  TGI: 22.2 µM
[54]
  TGI: 7.76 µM

## N#Cc1cccc(N2C(=O)c3ccc(C(=O)c4ccc5c(c4)C(=O)N(c4cccc(C#N)c4)C5=O)cc3C2=O)c1
[2]
  TGI: > 100 µM
[4]
  TGI: > 100 µM
[5]
  TGI: > 100 µM
[6]
  TGI: > 100 µM
[7]
  TGI: > 100 µM
[8]
  TGI: > 100 µM
[9]
  TGI: > 100 µM
[10]
  TGI: > 100 µM
[11]
  TGI: > 100 µM
[12]
  TGI: > 100 µM
[13]
  TGI: > 100 µM
[14]
  TGI: > 100 µM
[15]
  TGI: > 100 µM
[16]
  TGI: > 100 µM
[17]
  TGI: > 100 µM
[18]
  TGI: > 100 µM
[19]
  TGI: > 100 µM
[20]
  TGI: > 100 µM
[21]
  TGI: > 100 µM
[22]
  TGI: > 100 µM
[23]
  TGI: > 100 µM
[24]
  TGI: > 100 µM
[25]
  TGI: > 100 µM
[26]
  TGI: > 100 µM
[27]
  TGI: > 100 µM
[28]
  TGI: > 100 µM
[29]
  TGI: > 100 µM
[30]
  TGI: > 100 µM
[31]
  TGI: > 100 µM
[32]
  TGI: > 100 µM
[33]
  TGI: > 100 µM
[34]
  TGI: > 100 µM
[57]
  TGI: > 100 µM
[35]
  TGI: > 100 µM
[36]
  TGI: > 100 µM
[37]
  TGI: > 100 µM
[38]
  TGI: > 100 µM
[39]
  TGI: > 100 µM
[40]
  TGI: > 100 µM
[41]
  TGI: > 100 µM
[42]
  TGI: > 100 µM
[43]
  TGI: > 100 µM
[44]
  TGI: > 100 µM
[45]
  TGI: > 100 µM
[46]
  TGI: > 100 µM
[47]
  TGI: > 100 µM
[48]
  TGI: > 100 µM
[49]
  TGI: > 100 µM
[51]
  TGI: > 100 µM
[52]
  TGI: > 100 µM
[53]
  TGI: > 100 µM
[54]
  TGI: > 100 µM
[55]
  TGI: > 100 µM
[56]
  TGI: > 100 µM
